{"source": "BindingDB's records for patent US11708351", "about": "(Achillion Pharmaceuticals, 2023)", "biological_target": "Complement factor D (Homo sapiens, UniProt P00746)", "sequence (P00746 whole entry)": "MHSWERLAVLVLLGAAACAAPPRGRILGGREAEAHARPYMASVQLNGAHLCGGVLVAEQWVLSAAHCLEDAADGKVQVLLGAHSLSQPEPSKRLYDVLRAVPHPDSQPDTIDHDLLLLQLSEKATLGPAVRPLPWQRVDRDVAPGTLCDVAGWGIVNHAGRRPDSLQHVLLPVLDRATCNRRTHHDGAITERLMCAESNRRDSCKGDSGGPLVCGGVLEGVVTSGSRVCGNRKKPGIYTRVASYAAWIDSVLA", "assay": "Human Factor D Assay", "description": "Human Factor D (purified from human serum, Complement Technology, Inc.) at 80 nM final concentration is incubated with test compound at various concentrations for 5 min at room temperature in 50 mM Tris, 1M NaCl, pH 7.5. A synthetic substrate Z-L-Lys-SBzl and DTNB (Ellman's reagent) are added to final concentrations of 100 μM each. Absorbance at 405 nm (A405) is recorded at 30 second intervals for 30 min using a microplate spectrophotometer. IC50 values are calculated by nonlinear regression of complement Factor D reaction rates as a function of test compound concentration."}
{"compound": "CC(=O)c1nn(CC(=O)N2[C@@H](C(=O)Nc3nc(Br)ccc3C)C[C@@]3(C)C[C@@H]23)c2ccc(-c3cnc(C)nc3)cc12", "note": "[US11708351, Compound 279]", "values": [{"measurement": "IC50", "result": "> 10", "unit": "µM"}]}
